{
  "source": "patent US11696917B2",
  "about": "“Agent enhancing antitumor effect using pyrazolo[3,4-d]pyrimidine compound” (TAIHO PHARMACEUTICAL CO., LTD., priority 2017, dated 2023)",
  "target": "purified recombinant human HER2 protein (Homo sapiens (Human), UniProt P04626)",
  "assay": "Measurement of inhibitory effect on HER2-phosphorylating activity (in vitro)",
  "type": "biochemical",
  "settings": "ATP 6 μM, 25° C., 40 minutes",
  "source_text": "The purified recombinant human HER2 protein used in the test was purchased from Carna Biosciences, Inc.\nFor the inhibitory activity measurement of each compound, the synthesis example compound was first serially diluted with dimethyl sulfoxide (DMSO).",
  "note": "pIC50: −log10 of the molar value.",
  "data": [
    {"compound": "C=CC(=O)N1CCC[C@@H](n2nc(C(=O)Nc3cc(Cl)c(CC(=O)N(C)C)cc3Cl)c3c(N)ncnc32)C1", "note": "[compound 20]", "values": [
      {"measurement": "pIC50", "result": 7.89}
    ]},
    {"compound": "C=CC(=O)N1CCCC(n2nc(Nc3ccc(C(=O)N(C)C)cc3)c3c(N)ncnc32)C1", "note": "(stereo not shown) [compound 21]", "values": [
      {"measurement": "pIC50", "result": 7.59}
    ]},
    {"compound": "C=CC(=O)N1CCC[C@@H](n2nc(C(=O)Nc3ccc(CC(=O)N(C)C)cc3C3CC3)c3c(N)ncnc32)C1", "note": "[compound 22]", "values": [
      {"measurement": "pIC50", "result": 7.32}
    ]},
    {"compound": "C=CC(=O)N1CCC[C@@H](n2nc(C(=O)Nc3ccc(CC(=O)N(C)C)cc3C#N)c3c(N)ncnc32)C1", "note": "[compound 23]", "values": [
      {"measurement": "pIC50", "result": 7.70}
    ]},
    {"compound": "C=CC(=O)N1CCC[C@@H](n2nc(C(=O)Nc3cc(C#N)c(CC(=O)N(C)C)cc3C)c3c(N)ncnc32)C1", "note": "[compound 24]", "values": [
      {"measurement": "pIC50", "result": 7.42}
    ]},
    {"compound": "C=CC(=O)N1CCC[C@@H](n2nc(C(=O)Nc3ccc(CC(=O)N(C)C)cc3)c3c(N)ncnc32)C1", "note": "[compound 28]", "values": [
      {"measurement": "pIC50", "result": 7.34}
    ]},
    {"compound": "C=CC(=O)N1CCC[C@@H](n2nc(C(=O)Nc3ccc(CC(=O)N(C)C)c(OC)c3)c3c(N)ncnc32)C1", "note": "[compound 40]", "values": [
      {"measurement": "pIC50", "result": 7.64}
    ]},
    {"compound": "C=CC(=O)N1CCC[C@@H](n2nc(C(=O)Nc3cccc4c(CC(=O)N(C)C)ccnc34)c3c(N)ncnc32)C1", "note": "[compound 41]", "values": [
      {"measurement": "pIC50", "result": 7.74}
    ]},
    {"compound": "C=CC(=O)N1CCC[C@@H](n2nc(C(=O)Nc3ccc(CC(=O)N(C)C)c(F)c3)c3c(N)ncnc32)C1", "note": "[compound 42]", "values": [
      {"measurement": "pIC50", "result": 7.74}
    ]},
    {"compound": "C=CC(=O)N1CCC[C@@H](n2nc(C(=O)Nc3ccc(CC(=O)N(C)C)cc3N(C)C)c3c(N)ncnc32)C1", "note": "[compound 47]", "values": [
      {"measurement": "pIC50", "result": 7.28}
    ]},
    {"compound": "C=CC(=O)N1CCC[C@@H](n2nc(C(=O)Nc3ccc(CC(=O)N(C)C)cc3CC)c3c(N)ncnc32)C1", "note": "[compound 49]", "values": [
      {"measurement": "pIC50", "result": 7.70}
    ]},
    {"compound": "C=CC(=O)N1CCC[C@@H](n2nc(C(=O)Nc3ccc(CC(=O)N(C)C)cc3-c3ccco3)c3c(N)ncnc32)C1", "note": "[compound 51]", "values": [
      {"measurement": "pIC50", "result": 7.77}
    ]},
    {"compound": "C=CC(=O)N1CCC[C@@H](n2nc(C(=O)Nc3ccc(CC(=O)N(C)C)cc3-c3ccoc3)c3c(N)ncnc32)C1", "note": "[compound 52]", "values": [
      {"measurement": "pIC50", "result": 7.89}
    ]},
    {"compound": "C=CC(=O)N1CC[C@@H](n2nc(C(=O)Nc3ccc(CC(=O)N(C)C)cc3Cl)c3c(N)ncnc32)C1", "note": "[compound 54]", "values": [
      {"measurement": "pIC50", "result": 7.51}
    ]},
    {"compound": "C=CC(=O)N1CC[C@@H](n2nc(C(=O)Nc3ccc(CC(=O)N(C)C)c(Cl)c3OC)c3c(N)ncnc32)C1", "note": "[compound 55]", "values": [
      {"measurement": "pIC50", "result": 7.31}
    ]},
    {"compound": "C=CC(=O)N1CC[C@@H](n2nc(C(=O)Nc3ccc(CC(=O)N(C)C)c(C)c3C)c3c(N)ncnc32)C1", "note": "[compound 59]", "values": [
      {"measurement": "pIC50", "result": 7.35}
    ]},
    {"compound": "C=CC(=O)N1CC[C@@H](n2nc(C(=O)Nc3ccc(CC(=O)N(C)C)cc3Br)c3c(N)ncnc32)C1", "note": "[compound 62]", "values": [
      {"measurement": "pIC50", "result": 7.23}
    ]},
    {"compound": "C=CC(=O)N1CC[C@@H](n2nc(C(=O)Nc3ccc(CC(=O)N(C)C)c(F)c3Cl)c3c(N)ncnc32)C1", "note": "[compound 65]", "values": [
      {"measurement": "pIC50", "result": 7.70}
    ]},
    {"compound": "C=CC(=O)N1CC[C@@H](n2nc(C(=O)Nc3cc(Cl)c(CC(=O)N(C)C)cc3C)c3c(N)ncnc32)C1", "note": "[compound 67]", "values": [
      {"measurement": "pIC50", "result": 7.14}
    ]},
    {"compound": "(R)-4-(1-(1-acryloylpyrimidin-3-yl)-4-amino-1H-pyrazolo[3,4-d]pyrimidine-3-carboxamido)-3-methylphenyl methyl(phenyl) carbamate [compound 68]", "values": [
      {"measurement": "pIC50", "result": 8.11}
    ]},
    {"compound": "(R)-4-(1-(1-acryloylpyrimidin-3-yl)-4-amino-1H-pyrazolo[3,4-d]pyrimidine-3-carboxamido)-3-methylphenyl piperidine-1-carboxylate [compound 70]", "values": [
      {"measurement": "pIC50", "result": 8.00}
    ]},
    {"compound": "(R)-4-(1-(1-acryloylpyrimidin-3-yl)-4-amino-1H-pyrazolo[3,4-d]pyrimidine-3-carboxamido)-3-methylphenyl pyrrolidine-1-carboxylate [compound 69]", "values": [
      {"measurement": "pIC50", "result": 8.04}
    ]}
  ]
}
